{"source": "patent US9408827B2", "about": "“Sheet for cutaneous application containing vitamin E or an ester thereof” (IneSalus Corp., priority 2013, dated 2016)", "key": {"[1]": {"test_system": "reconstituted human epidermis Epi-200 EpiDerm™", "test": "Release of IL-1α in the culture medium (ELISA)", "conditions": "18-hour treatment; Tukey Kramer Multiple Comparisons Test", "protocol": "Tissue used: EPI-200-SIT EpiDerm™\nCulture medium: EPI-100-MM-HCF-60\n(§1) Incubation conditions: +37° C. in a 5% CO2 atmosphere\n(§2) Treatment with the sample: • continuous contact and incubation for 18 hours (single) • continuous contact and incubation for 7 days (double)\nControls Performed for the First Evaluation (18 Hours): • Negative control after 18 hours: inserts not treated • Positive control: inserts treated with 0.5% SDS (Sodium Dodecylsulphate) in sterile water during 18 hours of incubation;\nControls Performed for the 7-Day Evaluation: • Negative control: inserts not treated with the sample and kept for 7 days in the same incubation conditions as those treated with the sample.\nEvaluation of the Release of IL-1α in the Culture Medium:\nEvaluation in the culture medium obtained after the period of incubation of the sample with EPI-200. The release is measured by means of specific ELISA."}, "[2]": {"test_system": "reconstituted human epidermis Epi-200 EpiDerm™", "test": "Release of lactate dehydrogenase (LDH) in the culture medium", "conditions": "18-hour treatment; Tukey Kramer Multiple Comparisons Test", "description": "Further information for better defining the irritation potential was obtained from subsequent measurement of the following parameters: • evaluation of the release, in the culture medium, of the lactate dehydrogenase (LDH), a cytoplasmic enzyme, release of which indicates loss of integrity of the cellular membrane; • evaluation of the release, in the culture medium, of pro-inflammatory cytokine by means of ELISA (Enzyme Linked Immunosorbent Assay).\nTissue used: EPI-200-SIT EpiDerm™\nCulture medium: EPI-100-MM-HCF-60\nas §1, §2\n(§3) Application was carried out by applying about 1 cm^2 of sample (i.e. of the sheet according to the invention obtained as per the example given above) per insert.\n(§4) Controls Performed for the First Evaluation (18 Hours): • Negative control after 18 hours: inserts not treated • Positive control: inserts treated with 0.5% SDS (Sodium Dodecylsulphate) in sterile water during 18 hours of incubation; […]\nEvaluation in the culture medium obtained after the incubation period of the sample with the epidermis model. The culture medium is incubated with a specific reagent so as to allow quantitive determination of the lactate dehydrogenase at 490 nm."}, "[3]": {"test_system": "reconstituted human epidermis Epi-200 EpiDerm™", "test": "Evaluation of the cellular vitality by MTT assay (EpiDerm Skin Irritation Test EPI-200-SIT)", "protocol": "The tolerability of the sheets according to the invention was evaluated by means of an in-vitro assay on models of reconstituted epidermis for evaluation of the cumulative irritation.\nThe assay in question was based on the In vitro Epiderm™ Skin Irritation Test (EPI-200-SIT) developed by the MatTek Corporation, which uses the model of reconstituted human epidermis Epi-200 EpiDerm™.\nThe assay consists in topical application of the material under testing on the reconstituted epidermis for contact times equal to or greater than 18 hours. The irritation potential is determined by means of evaluation of the cellular vitality using the MTT assay.\nConditions for Conducting the Assay for Evaluation of the Cellular Vitality\nTissue used: EPI-200-SIT EpiDerm™\nCulture medium: EPI-100-MM-HCF-60\nas §1, §2, §3, §4"}}, "data": [{"smiles": "CCCCCCCCCCCCOS(=O)(=O)[O-].[Na+]", "note": "[Positive control, Sodium Dodecylsulphate]", "values": [{"measurement": "Release of IL-1α, statistical comparison in relation to the negative control", "setting": "[1]", "value": "*** (*** p < 0.001 extremely significant variation)"}, {"measurement": "Release of LDH, statistical comparison in relation to the negative control", "setting": "[2]", "value": "*** (*** p < 0.001 extremely significant variation)"}, {"measurement": "Average value of OD ± SD (MTT)", "setting": "[3]; 18-hour continuous contact and incubation", "value": "0.185 ± 0.004"}, {"measurement": "Average value of the % vitality (MTT)", "setting": "[3]; 18-hour treatment, relative to negative control = 100%", "value": "8.40 ± 0.17", "unit": "%"}]}]}
